In patent publication US20210395239A1 (Hoffmann-La Roche Inc., priority 2018, published 2021):

What follows are compounds tested against T1, human TLR7 (Homo sapiens, UniProt Q9NYK1) (assay: HEK293-Blue-hTLR-7 cells assay (SEAP reporter, R848 stimulation)). Conditions: HEK293-Blue-hTLR7 cells, R848, 20 hrs; read-out: HEK/hTLR7 IC50.
T1 construct: host or cells: HEK293 (HEK-Blue hTLR7)
T1 sequence (Q9NYK1 27-1049): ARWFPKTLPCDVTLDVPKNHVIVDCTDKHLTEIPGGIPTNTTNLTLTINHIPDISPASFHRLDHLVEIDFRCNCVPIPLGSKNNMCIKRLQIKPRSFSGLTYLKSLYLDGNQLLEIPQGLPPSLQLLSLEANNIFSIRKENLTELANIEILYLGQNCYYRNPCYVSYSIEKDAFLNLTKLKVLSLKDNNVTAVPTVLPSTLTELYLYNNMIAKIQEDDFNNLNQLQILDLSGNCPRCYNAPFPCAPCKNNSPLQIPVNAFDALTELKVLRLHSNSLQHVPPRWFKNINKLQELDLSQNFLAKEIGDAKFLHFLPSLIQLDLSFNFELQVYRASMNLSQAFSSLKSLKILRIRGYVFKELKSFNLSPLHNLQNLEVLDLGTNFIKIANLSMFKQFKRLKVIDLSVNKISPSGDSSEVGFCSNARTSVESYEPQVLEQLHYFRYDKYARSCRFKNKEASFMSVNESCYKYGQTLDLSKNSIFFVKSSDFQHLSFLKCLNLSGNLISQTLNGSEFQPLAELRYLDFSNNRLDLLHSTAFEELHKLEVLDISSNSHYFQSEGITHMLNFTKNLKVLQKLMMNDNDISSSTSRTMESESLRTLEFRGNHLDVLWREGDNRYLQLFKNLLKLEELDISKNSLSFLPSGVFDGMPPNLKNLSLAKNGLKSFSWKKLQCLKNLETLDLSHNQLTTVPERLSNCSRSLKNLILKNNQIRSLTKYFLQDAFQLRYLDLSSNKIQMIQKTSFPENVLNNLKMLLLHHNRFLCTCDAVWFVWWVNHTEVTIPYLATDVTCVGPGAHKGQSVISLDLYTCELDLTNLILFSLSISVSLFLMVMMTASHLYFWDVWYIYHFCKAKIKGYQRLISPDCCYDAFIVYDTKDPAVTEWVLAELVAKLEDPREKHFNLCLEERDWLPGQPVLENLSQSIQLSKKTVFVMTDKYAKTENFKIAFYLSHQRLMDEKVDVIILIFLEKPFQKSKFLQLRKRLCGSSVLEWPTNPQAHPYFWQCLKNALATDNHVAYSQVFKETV
Assay type: cell-based
Procedure, shortened: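 HEK293-Blue-hTLR7 cells (NF-κB/AP-1-driven SEAP reporter) were stimulated with R848 alongside serially diluted compound at 1% final DMSO for 20 h at 37 °C. Supernatant SEAP was then developed with QUANTI-Blue for 2 h at 37 °C and absorbance read at 620–655 nm; antagonism is measured as reduced reporter signal.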

Compared with C[C@@H]1CN(c2ccc(C#N)n3ncc(F)c23)C[C@H](CN2CCN(c3ccc(N4C[C@H]5NCCO[C@@H]5C4)nc3)CC2)O1 [Example 168, 4-[(2S,6R)-2-[[4-[6-[(4aR,7aR)-3,4,4a,5,7,7a-hexahydro-2H-pyrrolo[3,4-b][1,4]oxazin-6-yl]-3-pyridyl]piperazin-1-yl]methyl]-6-methyl-morpholin-4-yl]-3-fluoro-pyrazolo[1,5-a]pyridine-7-carbonitrile], C[C@@H]1CN(c2ccc(C#N)n3ncc(F)c23)C[C@H](CN2CCN(c3ccc(N4CC5(CCN5)C4)nc3)CC2)O1 [Example 179, 4-[(2S,6R)-2-[[4-[6-(1,6-diazaspiro[3.3]heptan-6-yl)-3-pyridyl]piperazin-1-yl]methyl]-6-methyl-morpholin-4-yl]-3-fluoro-pyrazolo[1,5-a]pyridine-7-carbonitrile] is 1.5-fold higher in IC50: 20 nM for the first, 30 nM for the second.

Compared with C[C@@H]1CN(c2ccc(C#N)n3ncc(F)c23)C[C@H](CN2CCN(c3ccc(N4CC5(CNCCO5)C4)nc3)CC2)O1 [Example 169, 3-fluoro-4-[(2R,6S)-2-methyl-6-[[4-[6-(5-oxa-2,8-diazaspiro[3.5]nonan-2-yl)-3-pyridyl]piperazin-1-yl]methyl]morpholin-4-yl]pyrazolo[1,5-a]pyridine-7-carbonitrile], C[C@@H]1CN(c2ccc(C#N)n3ncc(F)c23)C[C@H](CN2CCN(c3ccc(N4CCOC5(CNC5)C4)nc3)CC2)O1 [Example 178, 3-fluoro-4-[(2R,6S)-2-methyl-6-[[4-[6-(5-oxa-2,8-diazaspiro[3.5]nonan-8-yl)-3-pyridyl]piperazin-1-yl]methyl]morpholin-4-yl]pyrazolo[1,5-a]pyridine-7-carbonitrile] is 4.2-fold higher in IC50: 9 nM for the first, 38 nM for the second.

Compared with C[C@@H]1CN(c2ccc(C#N)n3ncc(F)c23)C[C@H](CN2CCN(c3ccc(N4CC5(CN(C)C5)C4)nc3)CC2)O1 [Example 170, 3-fluoro-4-[(2R,6S)-2-methyl-6-[[4-[6-(6-methyl-2,6-diazaspiro[3.3]heptan-2-yl)-3-pyridyl]piperazin-1-yl]methyl]morpholin-4-yl]pyrazolo[1,5-a]pyridine-7-carbonitrile], C[C@@H]1CN(c2ccc(C#N)n3ncc(F)c23)C[C@H](CN2CCN(c3ccc(N4CC[C@@H](N)[C@H](F)C4)nc3)CC2)O1 [Example 175, 4-[(2S,6R)-2-[[4-[6-[(3R,4R)-4-amino-3-fluoro-1-piperidyl]-3-pyridyl]piperazin-1-yl]methyl]-6-methyl-morpholin-4-yl]-3-fluoro-pyrazolo[1,5-a]pyridine-7-carbonitrile] is 1.7-fold higher in IC50: 6 nM for the first, 10 nM for the second.

C[C@@H]1CN(c2cc(=O)n(C)c3ncccc23)C[C@H](CN2CC(c3ccc(N4CCNCC4)cc3)C2)O1 [Example 171, 1-methyl-4-[(2R,6S)-2-methyl-6-[[3-(4-piperazin-1-ylphenyl)azetidin-1-yl]methyl]morpholin-4-yl]-1,8-naphthyridin-2-one] and C[C@@H]1CN(c2cc(=O)n(C)c3ncccc23)C[C@H](CN2CC(c3ccc(N4CC5(CNCCO5)C4)cc3)C2)O1 [Example 173, 1-methyl-4-[(2R,6S)-2-methyl-6-[[3-[4-(5-oxa-2,8-diazaspiro[3.5]nonan-2-yl)phenyl]azetidin-1-yl]methyl]morpholin-4-yl]-1,8-naphthyridin-2-one] are within 1.5-fold of each other in IC50: 38 nM for the first, 29 nM for the second.

C[C@@H]1CN(c2cc(=O)n(C)c3ncccc23)C[C@H](CN2CC(c3ccc(N4CC(C)(N)C4)cc3)C2)O1 [Example 176, 4-[(2S,6R)-2-[[3-[4-(3-amino-3-methyl-azetidin-1-yl)phenyl]azetidin-1-yl]methyl]-6-methyl-morpholin-4-yl]-1-methyl-1,8-naphthyridin-2-one] and C[C@@H]1CN(c2cc(=O)n(C)c3ncccc23)C[C@H](CN2CC(c3ccc(N4CC5(CN(C)C5)C4)cc3)C2)O1 [Example 180, 1-methyl-4-[(2R,6S)-2-methyl-6-[[3-[4-(6-methyl-2,6-diazaspiro[3.3]heptan-2-yl)phenyl]azetidin-1-yl]methyl]morpholin-4-yl]-1,8-naphthyridin-2-one] are within 1.5-fold of each other in IC50: 36 nM for the first, 53 nM for the second.

C[C@@H]1CN(c2ccc(C#N)n3ncc(F)c23)C[C@H](CN2CCN(c3ccc([C@@H]4CNCCO4)cc3)CC2)O1 [Example 177, 3-fluoro-4-[(2R,6S)-2-methyl-6-[[4-[4-[(2R)-morpholin-2-yl]phenyl]piperazin-1-yl]methyl]morpholin-4-yl]pyrazolo[1,5-a]pyridine-7-carbonitrile] and C[C@@H]1CN(c2ccc(C#N)n3ncc(F)c23)C[C@H](CN2CCN(c3ccc(C[C@@H]4CNCCO4)cc3)CC2)O1 [Example 186, 3-fluoro-4-[(2R,6S)-2-methyl-6-[[4-[4-[[(2R)-morpholin-2-yl]methyl]phenyl]piperazin-1-yl]methyl]morpholin-4-yl]pyrazolo[1,5-a]pyridine-7-carbonitrile] are within 1.5-fold of each other in IC50: 16 nM for the first, 18 nM for the second.

C[C@@H]1CN(c2cc(=O)n(C)c3ncccc23)C[C@H](CN2CC(c3ccc(N4C[C@H]5NCCO[C@@H]5C4)cc3)C2)O1 [Example 182, 4-[(2S,6R)-2-[[3-[4-[(4aR,7aR)-3,4,4a,5,7,7a-hexahydro-2H-pyrrolo[3,4-b][1,4]oxazin-6-yl]phenyl]azetidin-1-yl]methyl]-6-methyl-morpholin-4-yl]-1-methyl-1,8-naphthyridin-2-one] and C[C@@H]1CN(c2ccc(C#N)n3ncc(F)c23)C[C@H](CN2CCN(c3ccc([C@@H]4CNCCO4)c(F)c3)CC2)O1 [Example 184, 3-fluoro-4-[(2S,6R)-2-[[4-[3-fluoro-4-[(2R)-morpholin-2-yl]phenyl]piperazin-1-yl]methyl]-6-methyl-morpholin-4-yl]pyrazolo[1,5-a]pyridine-7-carbonitrile] are within 1.5-fold of each other in IC50: 26 nM for the first, 23 nM for the second.

C[C@@H]1CN(c2ccc(C#N)n3ncc(F)c23)C[C@H](CN2CCN(c3ccc(C4(C)CNCCO4)cc3)CC2)O1 (stereo partly drawn) [Example 185, 3-fluoro-4-[(2R,6S)-2-methyl-6-[[4-[4-(2-methylmorpholin-2-yl)phenyl]piperazin-1-yl]methyl]morpholin-4-yl]pyrazolo[1,5-a]pyridine-7-carbonitrile] was tested, and the IC50 was 39 nM.
